Experimental data: US4190647A, “Polypeptides and methods” (Sloan-Kettering Institute for Cancer Research, priority 1979, dated 1980)
Where a SMILES comes first, the peptide text is derived from it.

Key:
chicken bone marrow = assay: induction of Th-1 (T-cell) antigen on chicken bone marrow, cytotoxicity assay; assay type: cell-based; details: peptide at 1 μg/mil (method text: 0.1 μg/ml); control incubations subtracted
Protocol: To determine the pharmacological activity and characteristics of these pentapeptides, use was made of the induction of Th-1 (T-cell) antigen on chicken bone marrow for use as an assay of the peptides at a concentration of 1 μg/mil. This method is described in Science, Brand et al, Vol. 193, pp. 319-321, July, 1976. In this method, pooled cells from femur and tibiotarsus of newly hatched chicks of strain SC (Hy-Line) are fractionated by ultracentrifugation on a five-layer discontinuous bovine serum albumin (BSA) gradient (11). Cells from each interface are washed and suspended for incubation at a concentration of 5×10^6 cells per milliliter with the peptide (0.1 μg/ml) in RPMI 1630 medium supplemented with 15 mM Hepes, 5 percent y-globulin-free fetal calf serum, deoxyribonuclease (14 to 18 unit/ml), heparin (5 unit/ml), penicillin (100 unit/ml), and streptomycin (100 μg/ml). Controls are incubated with BSA (1 μg/ml) or medium alone. After incubation, the cells are tested in the cytotoxicity assay using chicken and guinea pig complement fractions. The proportion of Bu-1^+ or Th-1^+ cells in each layer are calculated as a cytotoxicity index, 100 (a-b)/a, where a and b are the percentages of viable cells in the complement control and test preparation, respectively. The percentage of cells induced is obtained by subtracting the mean values in the control incubations without inducing agents (usually 1 to 3 percent) from those of the test inductions.

[1] = activity of terminally substituted pentapeptides in Twomey solution compared with the basic pentapeptide of Example I; assay type: cell-based
[2] = test system: precursors present in bone marrow or spleen; details: precursors from bone marrow or spleen; cited from earlier work

Molecule	% Induction of Th-1 (T-cell) antigen on chicken bone marrow (chicken bone marrow) [%]	further results
C[C@H](NC(=O)[C@H](CC(N)=O)NC(=O)[C@@H](N)Cc1ccc(O)cc1)C(=O)N[C@@H](CCC(N)=O)C(=O)N[C@@H](CCCCN)C(=O)O [Example XXIV, H2 N-TYR-ASN-ALA-GLN-LYS-COOH] (H-YNAQK-OH)	21	–
CC[C@H](C)[C@H](NC(=O)[C@H](CC(N)=O)NC(=O)[C@@H](N)Cc1ccc(O)cc1)C(=O)N[C@@H](CCC(N)=O)C(=O)N[C@@H](CCCCN)C(N)=O [Example IV, H2 N-TYR-ASN-ILE-GLN-LYS-CONH2] (H-YNIQK-NH2)	–	activity relative to the basic pentapeptide of Example I ([1]; 1 μg/ml in 6% Twomey solution): activity comparable to the basic pentapeptide of Example I
CC[C@H](C)[C@H](NC(=O)[C@H](C)NC(=O)[C@@H](N)Cc1ccc(O)cc1)C(=O)N[C@@H](CCC(N)=O)C(=O)N[C@@H](CCCCN)C(=O)O [Example XXIII, H2 N-TYR-ALA-ILE-GLN-LYS-COOH] (H-YAIQK-OH)	15	–
CC[C@H](C)[C@H](NC(=O)[C@H](CC(N)=O)NC(=O)[C@H](Cc1ccc(O)cc1)NC(C)=O)C(=O)N[C@@H](CCC(N)=O)C(=O)N[C@@H](CCCCN)C(=O)O [Example III, CH3 CONH-TYR-ASN-ILE-GLN-LYS-COOH] (Ac-YNIQK-OH)	–	activity relative to the basic pentapeptide of Example I ([1]; 1 μg/ml in 14% Twomey solution): maximum and minimum activities comparable to the basic pentapeptide of Example I
Ubiquitin	–	concentration inducing in vitro differentiation of both T-cell and B-cell immunocytes [2]: nanogram concentrations
CC[C@H](C)[C@H](NC(=O)[C@H](CC(N)=O)NC(=O)[C@H](C)N)C(=O)N[C@@H](CCC(N)=O)C(=O)N[C@@H](CCCCN)C(=O)O [Example XXII, H2 N-ALA-ASN-ILE-GLN-LYS-COOH] (H-ANIQK-OH)	12	–
